Results: patent publication US11975048B2, “Long-acting fatty acid-conjugated GnRH derivatives and pharmaceutical compositions containing same” (NOVEL PHARMA INC., priority 2019, dated 2024)
Blank lines part the entries; values can stand above or below the molecule they belong to. Square brackets hold non-standard residues; d marks the D form. Peptide text beside a SMILES is read from it. * marks the point of attachment. Palmitoyl = CCCCCCCCCCCCCCCC(=O)*

Columns and labels:
[1] = cited from earlier work
[2] = tested on: LNCaP; experiment: Cell viability assay (CCK-8), prostate cancer cell line LNCaP; type: cell-based
Protocol: (§1) GnRH derivatives are clinically applied to the therapy of diseases including breast cancer, prostate cancer, endometriosis, central precocious puberty, and the like. […] An assay for cell viability was performed using the Cell Counting Kit-8 (CCK-8, manufactured by DOJINDO). Each of the cell lines was separated from the T75 flask by trypsinization and transferred to 96-well plates at a density of 1×10^4 cells/mL for DU-145 and at a density of 1×10^5 cells/mL for PC3 and LNCaP, followed by incubation for one hour for attachment.
(§2) Subsequently, each cell line was treated with 100 μM and 200 μM of each of the derivatives of Comparative Examples 1 to 3 and Examples 9 to 16 and the control. In brief, 1% methyl β-cyclodextrin was used as a negative control for cell viability while 0.1% sodium dodecyl sulfate (SDS) served as a positive control. After 48 hours of incubation, the existing culture medium was removed, and 100 μL of fresh culture medium and 10 μL of CCK-8 solution were applied to each cell line. Again, after 48 hours of incubation, the medium solution was replaced by 100 μL of fresh culture medium and 10 μL of CCK-8 solution. The cells were incubated for 4 hours, and then the absorbance was measured at 450 nm to assess cell viability.

[3] = tested on: DU-145; experiment: Cell viability assay (CCK-8), prostate cancer cell line DU-145; type: cell-based
Protocol: as §1, §2

[4] = tested on: PC3; experiment: Cell viability assay (CCK-8), prostate cancer cell line PC3; type: cell-based
Protocol: as §1, §2

[5] = Blood concentration over time and pharmacokinetic analysis after single subcutaneous administration (LC/MSMS); type: in vivo, female SD rats; settings: rats, 12.5 mg/kg s.c. once
Protocol: The present inventor carried out animal experiments (female SD rats, nine weeks old) in order to examine the increased in vivo half-lives of the prepared fatty acid-conjugated GnRH derivatives. […] DMSO (dimethyl sulfoxide) was used as a solvent as needed. Before administration and at 0.5, 1, 2, and 6 hours and on days 1, 3, 7, 10, 14, 21, and 28 after administration, blood samples were taken from the tail vein of the rats and measured for the blood concentrations of Leuprolide and the derivatives of the Examples, using LC/MSMS. If the concentration reached about 4 ng/mL at a specific time point, no measurements were further made for the next time point.
In the following table, the numerical unit is ng/mL.
The measurement results are graphically depicted in FIGS. 10 to 12. Based on the results, pharmacokinetic analysis was carried out by calculating the half-life (t1/2), clearance rate (CL), volume of distribution (Vd), time to reach the maximum concentration following drug administration (Tmax), maximum concentration following drug administration (Cmax), and systemic exposure to drug (AUCt). The analysis results are as follows.

[6] = tested on: ovary of female rats; experiment: Assay for ovarian morphological change (H&E stained ovaries); type: in vivo; settings: single subcutaneous dose 12.5 mg/kg (as cyclodextrin compositions), day 28, versus non-treated and methyl-β-cyclodextrin groups
Protocol: Experiments were carried out to examine whether or not the fatty acid-conjugated GnRH derivatives maintain the functional characteristics and incur a morphological change in the ovary.
The pharmaceutical compositions of Examples 9, 10, 13, 14, 15, and 16 were each subcutaneously injected at a single dose of 12.5 mg/kg once at the back of the neck to female rats 9 weeks old. Rats to which no drugs were administered were used as a non-treated control while an aqueous solution of 3 mg of methyl-β-cyclodextrin was injected to a negative control. Each group consisted of 3 rats.
On day 28 after injection, the rats were subjected to an autopsy to excise the ovaries which were then stained with hematoxylin-eosin (H&E stain).
Briefly, ovaries were stained with H&E and observed as follows.
11. After finishing the above procedures, the specimen slides were scanned using a ScanScope® AT slider scanner (Aperio) and the images thus stored were analyzed using the ImageScope program (Aperio). The scanned images are depicted in FIGS. 6 to 9.
It is known that when administered to rats, a GnRH agonist reduces the formation of secondary follicles and Graafian follicles (see: Mohammadbeigi et al., Short-term Administration of Gonadotropin-releasing Hormone Agonist (Buserelin) Induces Apoptosis in Rat Ovarian Developmental Follicles, July 2016). In this experiment, secondary and Graafian follicles on ovary images in each treatment group were indicted by arrows to examine whether the number of the follicles is reduced or not.

[7] = emulsion, same dose; cited from earlier work
[8] = treatment conc. 200 μM, listed as Comparative Example 3

Molecule: CC(C)C[C@H](NC(=O)CNC(=O)[C@H](Cc1ccc(O)cc1)NC(=O)[C@H](CO)NC(=O)[C@H](Cc1c[nH]c2ccccc12)NC(=O)[C@H](Cc1cnc[nH]1)NC(=O)[C@@H]1CCC(=O)N1)C(=O)N[C@@H](CCCNC(=N)N)C(=O)N1CCC[C@H]1C(=O)NCC(N)=O [C. Example 1]
in vivo half-life in circulating blood [1]: 2 to 4 min

Molecule: CC(C)C[C@H](NC(=O)[C@@H](Cc1c[nH]c2ccccc12)NC(=O)[C@H](Cc1ccc(O)cc1)NC(=O)[C@H](CO)NC(=O)[C@H](Cc1c[nH]c2ccccc12)NC(=O)[C@H](Cc1c[nH]cn1)NC(=O)[C@@H]1CCC(=O)N1)C(=O)N[C@@H](CCCNC(=N)N)C(=O)N1CCC[C@H]1C(=O)NCC(N)=O [C. Example 3, pyroGlu-His-Trp-Ser-Tyr-D-Trp-Leu-Arg-Pro-Gly-NH2]
Viability of LNCaP relative to negative control 1% methyl-β-cyclodextrin (%) ([2]; treatment conc. 100 μM): 92.89 ± 4.33%
Viability of LNCaP relative to negative control 1% methyl-β-cyclodextrin (%) ([2]; treatment conc. 200 μM): 90.22 ± 4.03%
Viability of LNCaP relative to negative control 1% methyl-β-cyclodextrin (%) [2, 8]: about 90%
Viability of DU-145 relative to negative control 1% methyl-β-cyclodextrin (%) ([3]; treatment conc. 100 μM): 100.92 ± 2.98%
Viability of DU-145 relative to negative control 1% methyl-β-cyclodextrin (%) ([3]; treatment conc. 200 μM): 94.27 ± 3.47%
Viability of DU-145 relative to negative control 1% methyl-β-cyclodextrin (%) [3, 8]: about 94%
Viability of PC3 relative to negative control 1% methyl-ß-cyclodextrin (%) ([4]; treatment conc. 100 μM): 99.67 ± 3.17%
Viability of PC3 relative to negative control 1% methyl-ß-cyclodextrin (%) ([4]; treatment conc. 200 μM): 95.44 ± 4.03%
Viability of PC3 relative to negative control 1% methyl-ß-cyclodextrin (%) [4, 8]: about 95%

AUC(0-t) ([5]; female, SD, rat, blood, sc, 12.5 mg/kg, read-out: AUCt (systemic exposure to drug) (converted)): 5190 ng·h/mL
Cmax ([5]; female, SD, rat, blood, sc, 12.5 mg/kg, read-out: Cmax (maximum concentration)): 52.2 ng/mL
half-life ([5]; female, SD, rat, blood, sc, 12.5 mg/kg, read-out: t1/2 (half-life) (converted)): 115 h
Tmax ([5]; female, SD, rat, blood, sc, read-out: Tmax (time to reach the maximum concentration) (converted)): 6 h
CL (clearance rate) ([5]; 12.5 mg/kg): 0.051 (mg/kg)/(ng/mL)/Day
Vd (volume of distribution) ([5]; 12.5 mg/kg): 0.351 (mg/kg)/(ng/mL)
Molecule: CCCCCCCCCCCCCCCC(=O)N[C@@H](CCC(N)=O)C(=O)N[C@@H](Cc1c[nH]cn1)C(=O)N[C@@H](Cc1c[nH]c2ccccc12)C(=O)N[C@@H](CO)C(=O)N[C@@H](Cc1ccc(O)cc1)C(=O)N[C@H](CC(C)C)C(=O)N[C@@H](CC(C)C)C(=O)N[C@@H](CCCNC(=N)N)C(=O)N1CCC[C@H]1C(=O)NCC [Example 4, Palmitic acid-Gln-His-Trp-Ser-Tyr-D-Leu-Leu-Arg-Pro-NHEt] (Palmitoyl-QHWSY[dL]LRP-NHEt)

Tmax (time to reach the maximum concentration) [5]: 6 h
CL (clearance rate) ([5]; 12.5 mg/kg): 0.075 (mg/kg)/(ng/mL)/Day
Cmax (maximum concentration) ([5]; 12.5 mg/kg): 45.7 ng/mL
Vd (volume of distribution) ([5]; 12.5 mg/kg): 0.436 (mg/kg)/(ng/mL)
t1/2 (half-life) ([5]; 12.5 mg/kg): 96.7 h
Molecule: CCCCCCCCCCCCCCCC(=O)N[C@@H](CCC(N)=O)C(=O)N[C@@H](Cc1c[nH]cn1)C(=O)N[C@@H](Cc1c[nH]c2ccccc12)C(=O)N[C@@H](CO)C(=O)N[C@@H](Cc1ccc(O)cc1)C(=O)N[C@H](CC(C)C)C(=O)N[C@@H](CC(C)C)C(=O)N[C@@H](CCCNC(=N)N)C(=O)N1CCC[C@H]1C(=O)NCC [Example 6, Palmitic acid-Gln-His-Trp-Ser-Tyr-D-Leu-Leu-Arg-Pro-NHEt] (Palmitoyl-QHWSY[dL]LRP-NHEt)

Molecule: CCCCCCCCCCCCOS(=O)(=O)[O-].[Na+] [Positive Control (0.1% SDS), sodium dodecyl sulfate]
Viability of LNCaP relative to negative control 1% methyl-β-cyclodextrin (%) ([2]; positive control, 0.1% SDS): 20.45 ± 1.58%
Viability of DU-145 relative to negative control 1% methyl-β-cyclodextrin (%) ([3]; positive control, 0.1% SDS): 18.18 ± 2.32%
Viability of PC3 relative to negative control 1% methyl-ß-cyclodextrin (%) ([4]; positive control, 0.1% SDS): 15.11 ± 1.72%

Molecule: Arachidic acid-Gln-His-Trp-Ser-Tyr-D-Leu-Leu-Arg-Pro-NHEt ({Arachidic acid}-QHWSY[dL]LRP-NHEt; also: acetate salt) [Example 8]
numbers of secondary or Graafian follicles in the ovary [6]: decreased

Molecule: Arachidic acid-Glu-His-Trp-Ser-Tyr-D-Leu-Leu-Arg-Pro-NHEt ({Arachidic acid}-EHWSY[dL]LRP-NHEt; also: acetate salt) [Example 7]
numbers of secondary or Graafian follicles in the ovary [6]: decreased

Molecule: Lauric acid-Gln-His-Trp-Ser-Tyr-D-Leu-Leu-Arg-Pro-NHEt ({Lauric acid}-QHWSY[dL]LRP-NHEt; also: acetate salt) [Example 2]
numbers of secondary or Graafian follicles in the ovary [6]: decreased

Molecule: Lauric acid-Glu-His-Trp-Ser-Tyr-D-Leu-Leu-Arg-Pro-NHEt ({Lauric acid}-EHWSY[dL]LRP-NHEt; also: acetate salt) [Example 1]
numbers of secondary or Graafian follicles in the ovary [6]: decreased

Molecule: Palmitic acid-Glu-His-Trp-Ser-Tyr-D-Leu-Leu-Arg-Pro-NHEt (Palmitoyl-EHWSY[dL]LRP-NHEt; also: acetate salt) [Example 5]
numbers of secondary or Graafian follicles in the ovary [6]: decreased

Molecule: dexamethasone palmitate
anti-inflammatory effect relative to dexamethasone alone [7]: 5.6 fold
